Assay results as given in patent US20090227619A1, “Harmine derivatives, intermediates used in their preparations, preparation processes and use therefo” (priority 2003, published 2009).
Where two headings read alike, the source gives them in different places.

How the values were obtained:
[1] = in vivo; conditions: both, Kunming, mouse, ip
Description: (§2) Five grades of dosages for each sample according to the results of the preliminary test, each dosage being 0.8 larger than the previous one
(§3) During the experiment, each sample was added a small amount of Tween-80 to facilitate dissolution after the sample was weighed, and then 0.5% CMC-Na solution was gradually added to achieve the desired concentration. The experimental volume was 0.5 ml/20 g mouse.
(§4) Single injection via intraperitoneal (i.p.) to different groups mice.
(§5) Kunming mice were divided into different groups randomly according to their sex. The medicament was intraperitoneally administered to each group of mice according to the dosage setting. After the administration of the medicaments, mice were observed continuously for the first 2 h for any gross behavioral changes and deaths. Dead animals were dissected and examined for any possible organ damage. […] Conditions of animals died within two week were recorded. After two weeks, all survived animals were sacrificed and checked macroscopically for possible damage to the heart, liver, kidneys and so on. Viscera that had substantive pathological changes were pathologically examined.

[2] = system: Kunming mice; conditions: for Death rate: single i.p.
Description: as §2, §3, §4, §5

[3] = system: NIH3T3; test: In vitro cytotoxicity, IC50 by MTT method, NIH3T3; assay type: cell-based; conditions: Mus musculus; NIH3T3 cell strain; read-out: IC50 NIH3T3
In short: (§1)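 Cells in RPMI1640 with 10% FBS at 37° C, 5% CO2 were seeded at 10^5/ml and exposed to a compound concentration gradient for 48 h, at least three replicates, solvent controls.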

[4] = system: Hela; test: In vitro cytotoxicity, IC50 by MTT method, Hela; assay type: cell-based; conditions: Homo sapiens; Hela cell strain; read-out: IC50 Hela
In short: as §1

[5] = system: HepG2; test: In vitro cytotoxicity, IC50 by MTT method, HepG2; assay type: cell-based, human; conditions: Homo sapiens; HepG2 cell strain; read-out: IC50 HepG2
In short: as §1

[6] = system: Lewis lung cancer; conditions: Lewis lung cancer; for Body weight of the animals, end, First time / Body weight of the animals, end, Second time: ip × 10qd; for Inhibition rate (%) Lewis cancer: comparison table 43, in vivo;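 on all read-outs here: mice implanted subcutaneously in the axilla with Lewis lung tumor cells, treated starting the following day, killed roughly three weeks after implantation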
[7] = system: Bel-7402; test: In vitro cytotoxicity, IC50 by MTT method, Bel-7402; assay type: cell-based; conditions: Homo sapiens, Bel-7402; Bel7402 cell strain; read-out: IC50 Bel7402
In short: as §1

[8] = system: Lovo; test: In vitro cytotoxicity, IC50 by MTT method, Lovo; assay type: cell-based; conditions: Homo sapiens; Lovo cell strain; read-out: IC50 Lovo
In short: as §1

[9] = system: BGC-823; test: In vitro cytotoxicity, IC50 by MTT method, BGC-823; assay type: cell-based; conditions: Homo sapiens, BGC-823; BGC823 cell strain; read-out: IC50 BGC823
In short: as §1

[10] = system: PLA-801; test: In vitro cytotoxicity, IC50 by MTT method, PLA-801; assay type: cell-based; conditions: PLA-801 cell strain; read-out: IC50 PLA-801
In short: as §1

[11] = system: CT-DNA; test: DNA thermal denaturation, determination of ΔTm; assay type: binding; conditions: 20 uM compound, Tm of CT-DNA alone 61° C.
Description: Experiments were carried out in PE buffer (1 mM Na2HPO4, 0.1 mM EDTA, pH 7.6) in a thermostatically controlled cell hold, and the quartz cuvette (1 cm path length) was heated by circulating water at a heating rate of 0.5° C./min from 25 to 95° C. Amsacrine and Doxorubicin Hydrochloride were used as standards. In all cases, the concentration of CT-DNA was 15 ug/ml. The ‘melting’ temperature Tm was taken as the mid-point of the hyperchromic transition.
ΔTm=Tm^drug-DNA complex−Tm^DNA alone
The ΔTm of each compound was calculated, Experiments were repeated three times, and an average value was calculated.

[12] = system: S180 sarcoma; conditions: S180 sarcoma; for Body weight of the animals, beginning, First time / Body weight of the animals, end, First time / Inhibition rate, First time / Weight of the tumor X ± SD, First time / Body weight of the animals, beginning, Second time / Body weight of the animals, end, Second time / Inhibition rate, Second time: ip × 10qd; for Inhibition rate (%) S180 sarcomata: comparison table 43, in vivo
[13] = 50% male 50% female mice, 240 mg/kg
[14] = 50% male 50% female mice, 300 mg/kg
[15] = CT-DNA 15 ug/ml, PE buffer pH 7.6
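Wherever Death rate is given: acute toxicity in Kunming mice grouped by sex, one intraperitoneal dose at five graded levels in Tween-80 plus 0.5% CMC-Na, deaths monitored over two weeks.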
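Wherever LD50 is given: acute toxicity in Kunming mice grouped by sex, one intraperitoneal dose at five graded levels in Tween-80 plus 0.5% CMC-Na, deaths monitored over two weeks.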
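Wherever MTD is given: acute toxicity in Kunming mice grouped by sex, one intraperitoneal dose at five graded levels in Tween-80 plus 0.5% CMC-Na, deaths monitored over two weeks.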
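Wherever Sex is given: acute toxicity in Kunming mice grouped by sex, one intraperitoneal dose at five graded levels in Tween-80 plus 0.5% CMC-Na, deaths monitored over two weeks.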

## OCc1cc2c3ccccc3n(Cc3ccccc3)c2cn1 [Compound 42, 9-benzyl-3-hydroxymethyl-β-carboline]
[1]
  LD50 at 2 weeks: 247 mg/kg
[2]; [13]
  Death rate: 50
[2]; [14]
  Death rate: 80
[2]; female mice, 240 mg/kg
  Death rate: 60
[2]; female mice, 300 mg/kg
  Death rate: 80
[2]; male mice, 240 mg/kg
  Death rate: 40
[2]; male mice, 300 mg/kg
  Death rate: 80
[2]; mouse, in vivo, ip
  LD50: 214 to 286 mg/kg
[3]
  IC50: 90 µM
[4]
  IC50: 120 µM
[5]
  IC50: 90 µM
[6]; Dosage 50 (mg/ml)
  Body weight of the animals, end, First time: 24.7 g
  Body weight of the animals, end, Second time: 24.7 g
[6]; Dosage 50, ip × 10qd
  Body weight of the animals, beginning, First time: 20.0 g
  Inhibition rate, First time: 22.22%
  Weight of the tumor X ± SD, First time: 2.14 ± 0.26 g
  Body weight of the animals, beginning, Second time: 19.1 g
  Inhibition rate, Second time: 26.96%
  Weight of the tumor X ± SD, Second time: 1.89 ± 0.14 g
[6]; Dosage 100 (mg/ml)
  Body weight of the animals, end, First time: 25.1 g
  Body weight of the animals, end, Second time: 25.1 g
[6]; Dosage 100, ip × 10qd
  Body weight of the animals, beginning, First time: 20.3 g
  Inhibition rate, First time: 33.33%
  Weight of the tumor X ± SD, First time: 1.62 ± 0.12 g
  Body weight of the animals, beginning, Second time: 18.9 g
  Inhibition rate, Second time: 34.47%
  Weight of the tumor X ± SD, Second time: 1.92 ± 0.26 g
[6]
  Inhibition rate (%) Lewis cancer: 34.47%
[7]
  IC50: 110 µM
[8]
  IC50: 100 µM
[9]
  IC50: 110 µM
[10]
  IC50: 160 µM
[11]; [15]
  ΔTm: −0.3 °C
[11]; CT-DNA thermal denaturation
  ΔTm: −0.3 °C
[12]; Dosage 50 (mg/ml)
  Body weight of the animals, beginning, First time: 19.5 g
  Body weight of the animals, end, First time: 24.7 g
  Inhibition rate, First time: 19.10%
  Weight of the tumor X ± SD, First time: 2.16 ± 0.38 g
  Body weight of the animals, beginning, Second time: 18.4 g
  Body weight of the animals, end, Second time: 25.6 g
  Inhibition rate, Second time: 20.74%
[12]; Dosage 50, ip × 10qd
  Weight of the tumor X ± SD, Second time: 2.14 ± 0.23 g
[12]; Dosage 100 (mg/ml)
  Body weight of the animals, beginning, First time: 19.2 g
  Body weight of the animals, end, First time: 24.3 g
  Inhibition rate, First time: 28.09%
  Weight of the tumor X ± SD, First time: 1.92 ± 0.25 g
  Body weight of the animals, beginning, Second time: 18.9 g
  Body weight of the animals, end, Second time: 25.1 g
  Inhibition rate, Second time: 25.15%
[12]; Dosage 100, ip × 10qd
  Weight of the tumor X ± SD, Second time: 2.02 ± 0.36 g
[12]
  Inhibition rate (%) S180 sarcomata: 28.09%

## c1ccc(Cn2c3ccccc3c3ccncc32)cc1 [Compound 84, 9-Benzyl-β-carboline]
[1]
  MTD at 2 weeks: 240 mg/kg
[2]; [13]
  Death rate: 0
[2]; [14]
  Death rate: 30
[2]; both, Kunming, mouse, in vivo, ip, 2 weeks
  Sex: 240
[2]; female mice, 240 mg/kg
  Death rate: 0
[2]; female mice, 300 mg/kg
  Death rate: 40
[2]; male mice, 240 mg/kg
  Death rate: 0
[2]; male mice, 300 mg/kg
  Death rate: 20
[3]
  IC50: 110 µM
[4]
  IC50: 50 µM
[5]
  IC50: 110 µM
[6]; Dosage 50 (mg/ml)
  Body weight of the animals, end, First time: 24.1 g
  Body weight of the animals, end, Second time: 25.2 g
[6]; Dosage 50, ip × 10qd
  Body weight of the animals, beginning, First time: 19.0 g
  Inhibition rate, First time: 27.09%
  Weight of the tumor X ± SD, First time: 1.83 ± 0.11 g
  Body weight of the animals, beginning, Second time: 19.7 g
  Inhibition rate, Second time: 30.93%
  Weight of the tumor X ± SD, Second time: 1.63 ± 0.16 g
[6]; Dosage 100 (mg/ml)
  Body weight of the animals, end, First time: 24.2 g
  Body weight of the animals, end, Second time: 24.7 g
[6]; Dosage 100, ip × 10qd
  Body weight of the animals, beginning, First time: 18.5 g
  Inhibition rate, First time: 35.06%
  Weight of the tumor X ± SD, First time: 1.63 ± 0.11 g
  Body weight of the animals, beginning, Second time: 19.4 g
  Inhibition rate, Second time: 37.29%
  Weight of the tumor X ± SD, Second time: 1.48 ± 0.15 g
[6]
  Inhibition rate (%) Lewis cancer: 37.29%
[7]
  IC50: 80 µM
[8]
  IC50: 120 µM
[9]
  IC50: 70 µM
[10]
  IC50: 120 µM
[11]; [15]
  ΔTm: 1.5 °C
[11]; CT-DNA thermal denaturation
  ΔTm: 1.5 °C
[12]; Dosage 50 (mg/ml)
  Body weight of the animals, beginning, First time: 19.6 g
  Body weight of the animals, end, First time: 26.8 g
  Inhibition rate, First time: 29.47%
  Weight of the tumor X ± SD, First time: 2.01 ± 0.24 g
  Body weight of the animals, beginning, Second time: 20.4 g
  Body weight of the animals, end, Second time: 25.4 g
  Inhibition rate, Second time: 31.23%
[12]; Dosage 50, ip × 10qd
  Weight of the tumor X ± SD, Second time: 1.96 ± 0.16 g
[12]; Dosage 100 (mg/ml)
  Body weight of the animals, beginning, First time: 19.7 g
  Body weight of the animals, end, First time: 26.4 g
  Inhibition rate, First time: 37.19%
  Weight of the tumor X ± SD, First time: 1.79 ± 0.27 g
  Body weight of the animals, beginning, Second time: 20.2 g
  Body weight of the animals, end, Second time: 25.0 g
  Inhibition rate, Second time: 37.19%
[12]; Dosage 100, ip × 10qd
  Weight of the tumor X ± SD, Second time: 1.79 ± 0.16 g
[12]
  Inhibition rate (%) S180 sarcomata: 37.19%
